Source: US5795912A, “Therapeutic composition for corneal impairment” (Senju Pharmaceutical, Co., Ltd., priority 1997, dated 1998)

How the values were obtained:
rats [1] = assay: LD50, i.v. (rats); type: in vivo
rats [2] = assay: LD50, p.o. (rats); type: in vivo
[3] = test system: UV-induced corneal lesion; assay: Inhibitory effect on UV-induced corneal lesions in rabbits (fluorescein penetration into the cornea, corneal epithelial barrier function); type: in vivo, rabbit (white rabbits); settings: from Table 1 and FIG. 1
Method: The inhibitory effect of the present compound on UV-induced corneal lesions in rabbits was evaluated. Test substance: L-Ascorbyl DL-α-tocopherylphosphate potassium (abbreviation: EPC-K). Method: White rabbits were used; 4 animals assigned to the present compound treatment group and 3 assigned to a control group (the nictitating membrane was excised beforehand).
For UV irradiation, Hoya-Schott's HLS200U (dominant wavelength 365 nm) equipped with a 200 W mercury-xenon lamp as the light source was used. Ushio Electric's Unimeter UIT-101 was used for the determination of luminous energy.
One eye of each rabbit was kept open with an eye speculum and set at a distance of 43 cm from the light source so that the irradiation energy would be 0.024 J/cm^2. […]
The degree of rabbit corneal lesion was evaluated by the following method^1). Using fluorescein as a tracer, the fluorescence intensity of the tracer dye penetrating into the cornea within a predetermined region was measured for a quantitative assessment of the barrier function of the corneal epithelium (The corneal epithelium has a barrier function^2) to restrict penetration of any substance into the deep layer of the cornea and when an erosion or other injury occurs in the corneal epithelium, this barrier function is compromised so that the penetration of the substance into the depth of the cornea is increased). […]

In the case of `Cc1c(C)c2c(c(C)c1OP(=O)(O)OC1=C(O)[C@@H]([C@@H](O)CO)OC1=O)CCC(C)(CCCC(C)CCCC(C)CCCC(C)C)O2` (mixture of isomers) [EPC-K, L-ascorbyl DL-α-tocopheryl phosphate potassium], the LD50 (rats [1]) is reported as ≥ 100 mg/kg, the LD50 (rats [2]) is reported as ≥ 5000 mg/kg and the “inhibition of UV-induced corneal lesion (result in words)” value [3] is reported as “effectively inhibits UV-induced corneal lesion”.
